Results on 5 molecules are retold here after publication PMC7849018 (Antimicrobial Agents and Chemotherapy, 2021).

“Also recorded” adds a separate entry of the source. Like-named read-outs stand apart in the source and are kept apart here. A value given as a limit tells only on which side of the number the result lay.

Data set [1] concerns the target human DNA polymerase beta (Homo sapiens, UniProt P06746). Description: Enzymatic inhibition assay. The settings on record: read-out: IC50 DNA pol β. The class given is biochemical.
Data set [2] has as its target T1, human DNA polymerase gamma (Homo sapiens, UniProt P54098).
T1 sequence (P54098 1-1239): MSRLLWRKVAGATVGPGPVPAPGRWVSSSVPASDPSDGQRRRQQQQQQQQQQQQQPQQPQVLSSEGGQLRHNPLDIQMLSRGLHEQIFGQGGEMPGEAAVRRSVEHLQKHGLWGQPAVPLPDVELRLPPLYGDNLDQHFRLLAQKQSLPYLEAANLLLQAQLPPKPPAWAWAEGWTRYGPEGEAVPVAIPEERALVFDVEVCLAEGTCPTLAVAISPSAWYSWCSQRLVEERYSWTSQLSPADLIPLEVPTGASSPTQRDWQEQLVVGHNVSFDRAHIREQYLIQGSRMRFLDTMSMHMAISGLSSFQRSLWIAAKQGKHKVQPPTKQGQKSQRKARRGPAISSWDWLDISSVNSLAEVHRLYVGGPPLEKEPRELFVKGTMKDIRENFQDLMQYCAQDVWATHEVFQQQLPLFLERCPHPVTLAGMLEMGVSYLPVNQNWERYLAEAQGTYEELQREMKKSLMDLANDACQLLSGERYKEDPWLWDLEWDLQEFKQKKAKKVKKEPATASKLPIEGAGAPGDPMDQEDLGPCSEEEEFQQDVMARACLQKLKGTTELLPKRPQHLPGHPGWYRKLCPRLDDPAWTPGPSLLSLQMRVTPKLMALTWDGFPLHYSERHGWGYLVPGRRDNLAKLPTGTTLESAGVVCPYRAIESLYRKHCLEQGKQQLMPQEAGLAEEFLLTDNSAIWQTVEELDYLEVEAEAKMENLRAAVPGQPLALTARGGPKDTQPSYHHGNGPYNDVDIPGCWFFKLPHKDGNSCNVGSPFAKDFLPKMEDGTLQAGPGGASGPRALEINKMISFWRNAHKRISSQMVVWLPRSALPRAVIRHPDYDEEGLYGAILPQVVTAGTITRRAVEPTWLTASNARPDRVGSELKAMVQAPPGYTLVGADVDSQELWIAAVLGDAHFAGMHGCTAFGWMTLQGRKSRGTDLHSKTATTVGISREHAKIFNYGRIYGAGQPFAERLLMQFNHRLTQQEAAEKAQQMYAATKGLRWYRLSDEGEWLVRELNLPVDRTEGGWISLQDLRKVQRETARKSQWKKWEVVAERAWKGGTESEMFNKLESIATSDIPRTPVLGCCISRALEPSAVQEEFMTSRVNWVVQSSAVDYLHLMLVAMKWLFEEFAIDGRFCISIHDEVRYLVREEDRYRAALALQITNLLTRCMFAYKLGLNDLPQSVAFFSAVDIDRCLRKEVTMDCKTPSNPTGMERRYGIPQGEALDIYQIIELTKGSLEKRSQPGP
T1 sequence (Q9UHN1 26-485 partner limits assumed): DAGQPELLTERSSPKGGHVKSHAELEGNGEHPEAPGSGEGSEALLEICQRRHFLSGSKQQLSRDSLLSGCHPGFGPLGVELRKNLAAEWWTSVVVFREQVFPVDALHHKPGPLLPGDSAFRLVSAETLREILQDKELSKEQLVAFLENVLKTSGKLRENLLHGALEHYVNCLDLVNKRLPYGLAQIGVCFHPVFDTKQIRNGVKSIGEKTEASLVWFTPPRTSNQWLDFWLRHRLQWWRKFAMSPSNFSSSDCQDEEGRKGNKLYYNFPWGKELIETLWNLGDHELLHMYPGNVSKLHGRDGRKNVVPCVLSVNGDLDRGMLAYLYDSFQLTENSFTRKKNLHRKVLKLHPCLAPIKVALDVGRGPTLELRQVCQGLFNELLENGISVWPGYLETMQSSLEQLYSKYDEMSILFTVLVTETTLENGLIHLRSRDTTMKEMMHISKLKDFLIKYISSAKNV
The data set is described as follows: Enzymatic inhibition assay. The format is biochemical. The settings on record: read-out: IC50 DNA pol γ.

A further data set deals with human POLRMT (Homo sapiens, UniProt O00411). The data set is described as follows: Enzymatic inhibition assay. The format is biochemical. The settings on record: read-out: IC50 POLRMT pol.
Sequence of human POLRMT (O00411 42-1230): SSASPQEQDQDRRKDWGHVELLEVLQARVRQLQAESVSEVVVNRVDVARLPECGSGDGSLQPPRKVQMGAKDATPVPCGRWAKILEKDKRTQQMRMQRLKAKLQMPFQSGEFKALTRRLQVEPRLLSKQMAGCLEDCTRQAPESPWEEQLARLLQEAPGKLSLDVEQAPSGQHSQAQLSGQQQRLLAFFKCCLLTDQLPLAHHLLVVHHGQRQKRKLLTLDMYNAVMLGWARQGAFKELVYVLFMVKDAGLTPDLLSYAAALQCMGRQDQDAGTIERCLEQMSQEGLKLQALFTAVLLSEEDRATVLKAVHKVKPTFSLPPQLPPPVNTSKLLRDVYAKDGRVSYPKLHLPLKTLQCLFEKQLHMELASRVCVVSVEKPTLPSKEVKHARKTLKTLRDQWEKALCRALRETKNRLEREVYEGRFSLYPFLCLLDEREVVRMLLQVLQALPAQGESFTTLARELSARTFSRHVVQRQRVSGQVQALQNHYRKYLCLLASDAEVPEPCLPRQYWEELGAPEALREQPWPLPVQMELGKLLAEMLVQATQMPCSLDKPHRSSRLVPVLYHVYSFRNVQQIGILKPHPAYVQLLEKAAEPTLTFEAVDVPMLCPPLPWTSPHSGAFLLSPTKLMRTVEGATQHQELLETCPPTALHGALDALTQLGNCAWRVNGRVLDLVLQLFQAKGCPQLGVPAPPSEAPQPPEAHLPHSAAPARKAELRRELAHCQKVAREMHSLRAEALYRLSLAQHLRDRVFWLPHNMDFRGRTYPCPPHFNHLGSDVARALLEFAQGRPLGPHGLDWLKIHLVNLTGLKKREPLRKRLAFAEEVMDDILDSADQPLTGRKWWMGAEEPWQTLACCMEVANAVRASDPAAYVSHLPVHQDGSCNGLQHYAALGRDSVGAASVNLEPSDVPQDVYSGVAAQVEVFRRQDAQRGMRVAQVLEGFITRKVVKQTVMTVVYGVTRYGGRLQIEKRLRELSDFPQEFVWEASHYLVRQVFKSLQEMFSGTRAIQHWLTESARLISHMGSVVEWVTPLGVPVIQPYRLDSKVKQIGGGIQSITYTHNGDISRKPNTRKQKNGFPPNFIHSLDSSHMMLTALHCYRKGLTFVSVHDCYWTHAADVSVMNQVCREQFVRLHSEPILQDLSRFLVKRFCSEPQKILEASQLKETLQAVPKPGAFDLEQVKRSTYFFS
For data set [3], the target named is T2, human mitochondrial DNA Pol γ (Homo sapiens, UniProt P54098).
T2 sequence (P54098 1-1239): T1 sequence (P54098 1-1239)
T2 sequence (Q9UHN1 26-485 partner limits assumed): T1 sequence (Q9UHN1 26-485 partner limits assumed)
The data set is described as follows: Single nucleotide incorporation assay. The class given is biochemical. The following applies: 50 μM nucleotide analog; relative to natural dNTP at same concentration.

Data set [4] relates to mitochondrial DNA (mtDNA) in HepG2 cells. Description: Mitochondrial DNA content by qPCR. The format is cell-based, human. The following applies: continual treatment for 10 days. (In qPCR the cycle at which signal appears reflects the starting amount.)
Data set [5] concerns COX-1 (mitochondrial DNA-encoded cytochrome c oxidase, complex IV) protein level. The data set is described as follows: Mitochondrial protein synthesis assay. The settings on record: human, PC-3 cells. The format is cell-based.
Data set [6] is described as follows: Mitochondrial respiration. The class given is cell-based. The settings on record: human, PC-3 cells, 3-day treatment.
Data set [7] is described as follows: Mitochondrial respiration. The class given is cell-based. The settings on record: human, HepG2 cells, 3-day treatment.
Data set [8] can be described thus: Mitochondrial respiration. The class given is cell-based. The settings on record: human; for CC50 at 3 day: PHH cells (primary human hepatocytes); for CC50 at 3 days: primary human hepatocytes (PHH).
Data set [9] can be described thus: Mitochondrial respiration. The settings on record: human, RPTEC cells, RPTECs, 3-day treatment. The format is cell-based.
Data set [10] relates to SDH-A (nuclear DNA-encoded succinate dehydrogenase, complex II) protein level. The data set is described as follows: Mitochondrial protein synthesis assay. The format is cell-based. The following applies: human, PC-3 cells.
The subject of a further data set is HepG2. The settings on record: read-out: 5-day CC50 HepG2 cells Anaerobic (glucose).
The test system of the next data set is PC-3. The following applies: read-out: 5-day CC50 PC-3 cells Anaerobic (glucose).
Data set [11] can be described thus: in vitro. The settings on record: human, CC50, Myeloid progenitors; 11- to 14-day treatment.
Data set [12] can be described thus: in vitro. The settings on record: human.
Data set [13] can be described thus: in vitro. The settings on record: human. This is another data set of the same source.
Data set [14] in a line: Cellular ATP alongside the mitochondrial protein synthesis assay. The settings on record: human, PC-3 cells.
In another data set the test system is HepG2 cells. The data set is described as follows: Intracellular reactive oxygen species level. The format is cell-based, human. The following applies: 24-h incubation.
The subject of another data set is Stimulated PBMC. The settings on record: 5-day treatment.
The test system of data set [15] is HepG2 galactose-adapted cell line. The settings on record: read-out: 5-day CC50 HepG2 cells Aerobic (galactose).
In data set [16] the test system is PC-3 galactose-adapted cell line. The settings on record: CC50 galactose versus glucose culture.
Data set [17] deals with SARS-CoV-2 in human airway epithelial cells (HAE). The following applies: read-out: EC50 against SARS-CoV-2; cited from earlier work.
For data set [18] the following is noted: cited from earlier work.
The conditions of data set [19]: cited from earlier work. The source holds these as a separate data set.
For data set [20] the following is noted: moderate COVID-19, cited from earlier work.
For data set [21] the following is noted: hospitalized patients with COVID-19; RDV for up to 10 days; cited from earlier work.
Setting [22] is: pH 7.4, 3-day CC50 Spare respiration.
Setting [23] is: healthy subjects, repeat-dose study 150 mg once daily, reversible.
Where [24] appears, read: humans, repeated dosing of 150 mg.

What is called IC50 is the concentration needed to halve the response being measured. In the case of `Cc1cn([C@H]2CC[C@@H](COP(=O)(O)OP(=O)(O)OP(=O)(O)O)O2)c(=O)[nH]c1=O` [3′dTTP], the IC50 in data set [1] worked out at 1.9 µM; in [2] it was 1.2 µM.

As for `Nc1nc2c(ncn2[C@@H]2O[C@H](COP(=O)(O)OP(=O)(O)OP(=O)(O)O)C[C@H]2O)c(=O)[nH]1` [3′deoxy GTP, 3′-deoxy GTP], the IC50 at human POLRMT worked out at 4.2 µM.

`Nc1ncn([C@H]2C[C@H](O)[C@@H](COP(=O)(O)OP(=O)(O)OP(=O)(O)O)O2)c(=O)n1` [5-aza-2′-dCTP, 5-aza-2′-deoxyCTP]: in data set [3], the “Rate of incorporation (% of natural dNTP or NTP), DNA polymerase γ” value is listed as 79% ± 8%.

`N#C[C@@]1(c2ccc3c(N)ncnn23)O[C@H](CO)[C@@H](O)[C@H]1O` [GS-441524]: the “effect on mtDNA content (in words)” value in data set [4] is listed as “overall minimal”. Also, the CC50 at 5 days (in [5]; in data set [10]; in the data set “in vitro [12]”; in the data set “in vitro [13]”; in data set [14]) was above 100 µM in each case. Besides, the CC50 at 3 day in [6] (3-day CC50 Cellular ATP), in [6] (3-day CC50 Total DNA content), in data set [6] (setting [22]), in [7] (3-day CC50 Cellular ATP), in [7] (3-day CC50 Total DNA content) and in data set [7] (setting [22]) was above 100 µM each time. Further, the CC50 at 3 day in data set [8], in data set [9] (3-day CC50 Cellular ATP), in [9] (3-day CC50 Total DNA content) and in data set [9] (setting [22]) was above 100 µM in each case. Also, the CC50 at 3 days in data set [8] and in data set [8] (pH 7.4) was above 100 µM in each case. Moreover, the results for the CC50 in the data set with HepG2, with PC-3 and in “in vitro [11]” were above 100 µM, above 100 µM and 11.7 ± 9.6 µM, respectively.

As a reminder, the EC50 is the concentration that produces a half-maximal response. By Cmax is commonly meant the peak of the concentration-time curve. In the case of `CCC(CC)COC(=O)[C@H](C)N[P@](=O)(OC[C@H]1O[C@@](C#N)(c2ccc3c(N)ncnn23)[C@H](O)[C@@H]1O)Oc1ccccc1` [RDV, Remdesivir], the “decrease in cell viability” value in the data set with HepG2 cells (100 μM) is 60%. In addition, in the data set on HepG2 cells (100 μM, vs DMSO control), the “increase in ROS levels” value is reported as 60%. The “effect on ROS levels” value in the data set with HepG2 cells (3.1 to 50 μM) was “no significant increase in ROS levels; also recorded: no effect on ROS”. For the same molecule, in data set [4], the “effect on mtDNA content (in words)” value is on record as “lack of dose response”. Further, the CC50 at 5 days in data set [5] was 8.9 ± 1.1 µM; in data set [10], 8.6 ± 1.3 µM; in “in vitro [13]”, 1.4 ± 0.1 µM; in data set [14] it was 11.3 ± 3.3 µM. For the same molecule, the CC50 at 3 day stood at 24 ± 1.4 µM in data set [6] (3-day CC50 Cellular ATP); 2.5 ± 0.1 µM in [6] (setting [22]); 7.9 ± 0.1 µM in data set [7] (3-day CC50 Cellular ATP); 6.3 ± 0.9 µM in data set [7] (3-day CC50 Total DNA content); 10.6 ± 0.1 µM in data set [7] (setting [22]); 7.8 ± 2.2 µM in data set [8]. Moreover, the CC50 at 3 day in data set [9] (3-day CC50 Cellular ATP) turned out to be 16.9 ± 4.1 µM; in data set [9] (3-day CC50 Total DNA content) it was 14.3 ± 3.3 µM; in [9] (setting [22]) it was 7.3 ± 2.7 µM. The results for the CC50 at 3 days in [8] and in data set [8] (pH 7.4) were 13.4 ± 1.7 µM and 7.6 ± 1.9 µM, respectively. The CC50 with Stimulated PBMC is 14.8 ± 5.8 µM; in data set [15], 11.1 ± 1.2 µM; in the data set “in vitro [11]”, 5.1 ± 2.3 µM. Also, in [16], the “enhancement of cytotoxicity by aerobic conditions” value is given as 6 fold. In addition, the EC50 in data set [17] is 0.0099 µM. In data set [18] (setting [23]), the “treatment-emergent grade 1 or 2 ALT elevations” value is listed as 50%. In addition, in data set [18] (setting [23]), the “treatment-emergent grade 1 or 2 AST elevations” value is 44%. In addition, in data set [18] (setting [24]), the “plasma Cmax” value was 2,720 ng/ml. Moreover, in data set [18] (setting [24]), the t1/2 was 1.11 h. Besides, in [18] (read-out: plasma Cmax, humans, repeated dosing of 150 mg), the Cmax was 4.5 µM. Besides, the “adverse events of elevations in ALT” value is 6% in data set [19] (5-day RDV treatment), 8% in data set [19] (10-day RDV treatment), 34% in data set [20] (5-day RDV) and 32% in data set [20] (10-day RDV). Further, the “adverse events of elevations in AST” value in data set [19] (5-day RDV treatment) is given as 5%; in data set [19] (10-day RDV treatment), 7%; in [20] (5-day RDV), 32%; in [20] (10-day RDV) it was 32%. Besides, the “Grade 3 or 4 adverse events, ALT” value in data set [20] (5-day RDV) is 2%; in data set [20] (10-day RDV) it was 3%. For the same molecule, the figures for the “Grade 3 or 4 adverse events, AST” value in data set [20] (5-day RDV) and in data set [20] (10-day RDV) were 3% and 1%, respectively. Further, in data set [21], the “adverse events of increased amino transferase levels, including ALT, AST, or both” value is recorded as 6 % of subjects.
